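Each compound was tested at five concentrations against cells in 96-well plates for 48 hours. At the GI50, growth is halved.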 The source made the active and inactive calls. Cut-off read from the data, not from the text of the source: active = GI50 up to about 1.1 µM and inactive = higher.
Tests used:
Experiment in all cases: NCI-60 cell line screen, 48 h
CAKI-1 = system: CAKI-1
HCT-15 = system: HCT-15
EKVX = system: EKVX
UO-31 = system: UO-31
SNB-19 = system: SNB-19
OVCAR-4 = system: OVCAR-4
SK-MEL-5 = system: SK-MEL-5
SK-MEL-2 = system: SK-MEL-2
HOP-62 = system: HOP-62
ACHN = system: ACHN
T47D = system: T47D
LOX IMVI = system: LOX IMVI
NCI-H23 = system: NCI-H23
MCF7 = system: MCF7
TK-10 = system: TK-10
SW-620 = system: SW-620
MDA-MB-435 = system: MDA-MB-435
DU-145 = system: DU-145
UACC-62 = system: UACC-62
K562 = system: K562
M14 = system: M14
A549 = system: A549
MOLT-4 = system: MOLT-4
HCC 2998 = system: HCC 2998
PC-3 = system: PC-3
HCT-116 = system: HCT-116
786-0 = system: 786-0
HOP-92 = system: HOP-92
KM12 = system: KM12
SK-MEL-28 = system: SK-MEL-28
SF-539 = system: SF-539
SK-OV-3 = system: SK-OV-3
SNB-75 = system: SNB-75
A498 = system: A498
IGROV-1 = system: IGROV-1
NCI/ADR-RES = system: NCI/ADR-RES
NCI-H226 = system: NCI-H226
MDA-N = system: MDA-N
RXF 393 = system: RXF 393
U-251 = system: U-251
HL-60 = system: HL-60
UACC-257 = system: UACC-257
CCRF-CEM = system: CCRF-CEM
NCI-H522 = system: NCI-H522
SN12C = system: SN12C
OVCAR-3 = system: OVCAR-3
HT-29 = system: HT-29
MDA-MB-231 = system: MDA-MB-231
OVCAR-8 = system: OVCAR-8
OVCAR-5 = system: OVCAR-5
SF-295 = system: SF-295
COLO 205 = system: COLO 205
Malme-3M = system: Malme-3M
NCI-H460 = system: NCI-H460
SF-268 = system: SF-268
RPMI-8226 = system: RPMI-8226
SR = system: SR
Hs-578T = system: Hs-578T

## Cc1cc(-c2nc3ccc(O)cc3s2)ccc1N
CAKI-1
  GI50: 34.8 µM (inactive)

## C=CCn1c2ccccc2[n+]2cc([N+](=O)[O-])ccc12
HCT-15
  GI50: 34.5 µM
EKVX
  GI50: 37 µM (inactive)
UO-31
  GI50: 48.4 µM (inactive)
SNB-19
  GI50: 66.2 µM (inactive)
OVCAR-4
  GI50: 77.4 µM (inactive)
SK-MEL-5
  GI50: 22 µM (inactive)
SK-MEL-2
  GI50: 27.2 µM (inactive)
HOP-62
  GI50: 54.3 µM (inactive)
ACHN
  GI50: 33.1 µM (inactive)
T47D
  GI50: 32.3 µM (inactive)
LOX IMVI
  GI50: 30.5 µM (inactive)
NCI-H23
  GI50: 20 µM (inactive)
MCF7
  GI50: 26.3 µM (inactive)
TK-10
  GI50: 61.7 µM (inactive)
SW-620
  GI50: 30.8 µM (inactive)
MDA-MB-435
  GI50: 26.4 µM (inactive)
DU-145
  GI50: 50.9 µM (inactive)
UACC-62
  GI50: 28.6 µM (inactive)
K562
  GI50: 13 µM (inactive)
M14
  GI50: 36.3 µM (inactive)
A549
  GI50: > 100 µM (inactive)
MOLT-4
  GI50: 28.2 µM (inactive)
HCC 2998
  GI50: 54.8 µM (inactive)
PC-3
  GI50: 48.8 µM (inactive)
HCT-116
  GI50: 27.2 µM (inactive)
786-0
  GI50: 46.2 µM (inactive)
HOP-92
  GI50: 18.9 µM (inactive)
KM12
  GI50: 40.1 µM (inactive)
SK-MEL-28
  GI50: 34.2 µM (inactive)
SF-539
  GI50: 32.7 µM (inactive)
SK-OV-3
  GI50: 47.2 µM (inactive)
SNB-75
  GI50: 33.1 µM (inactive)
A498
  GI50: 19.5 µM (inactive)
CAKI-1
  GI50: 32.1 µM (inactive)
IGROV-1
  GI50: 21.3 µM (inactive)
NCI/ADR-RES
  GI50: 57 µM (inactive)
NCI-H226
  GI50: 25.9 µM (inactive)
MDA-N
  GI50: 23.9 µM (inactive)
RXF 393
  GI50: 67.3 µM (inactive)
U-251
  GI50: 31.9 µM (inactive)
HL-60
  GI50: 17.3 µM (inactive)
UACC-257
  GI50: 21.3 µM (inactive)
CCRF-CEM
  GI50: 20.9 µM (inactive)
NCI-H522
  GI50: 16 µM (inactive)
SN12C
  GI50: 27.3 µM (inactive)
OVCAR-3
  GI50: 24.5 µM (inactive)
HT-29
  GI50: 18.3 µM (inactive)
MDA-MB-231
  GI50: 34.7 µM (inactive)
OVCAR-8
  GI50: 27 µM (inactive)
OVCAR-5
  GI50: 74 µM (inactive)
SF-295
  GI50: > 100 µM (inactive)
COLO 205
  GI50: 12.3 µM (inactive)
Malme-3M
  GI50: 15.8 µM (inactive)

## Cc1nn(-c2ccccc2)c2nc3c(c(C)nn3-c3ccccc3)c(-c3ccc(C(F)(F)F)cc3)c12
HCT-15
  GI50: > 100 µM
EKVX
  GI50: > 100 µM (inactive)
UO-31
  GI50: > 100 µM (inactive)
SNB-19
  GI50: 96.2 µM (inactive)
OVCAR-4
  GI50: > 100 µM (inactive)
SK-MEL-5
  GI50: > 100 µM (inactive)
HOP-62
  GI50: > 100 µM (inactive)
ACHN
  GI50: > 100 µM (inactive)
T47D
  GI50: > 100 µM (inactive)
LOX IMVI
  GI50: > 100 µM (inactive)
NCI-H23
  GI50: > 100 µM (inactive)
MCF7
  GI50: > 100 µM (inactive)
TK-10
  GI50: > 100 µM (inactive)
SW-620
  GI50: > 100 µM (inactive)
MDA-MB-435
  GI50: > 100 µM (inactive)
DU-145
  GI50: > 100 µM (inactive)
UACC-62
  GI50: > 100 µM (inactive)
K562
  GI50: > 100 µM (inactive)
M14
  GI50: > 100 µM (inactive)
A549
  GI50: > 100 µM (inactive)
MOLT-4
  GI50: > 100 µM (inactive)
HCC 2998
  GI50: > 100 µM (inactive)
PC-3
  GI50: > 100 µM (inactive)
NCI-H460
  GI50: > 100 µM (inactive)
HCT-116
  GI50: > 100 µM (inactive)
786-0
  GI50: 60.1 µM (inactive)
SF-268
  GI50: 44.7 µM (inactive)
HOP-92
  GI50: > 100 µM (inactive)
KM12
  GI50: > 100 µM (inactive)
SK-MEL-28
  GI50: > 100 µM (inactive)
SF-539
  GI50: 72.3 µM (inactive)
SK-OV-3
  GI50: > 100 µM (inactive)
SNB-75
  GI50: 39.4 µM (inactive)
A498
  GI50: > 100 µM (inactive)
CAKI-1
  GI50: > 100 µM (inactive)
NCI/ADR-RES
  GI50: > 100 µM (inactive)
NCI-H226
  GI50: > 100 µM (inactive)
MDA-N
  GI50: > 100 µM (inactive)
RXF 393
  GI50: > 100 µM (inactive)
U-251
  GI50: > 100 µM (inactive)
HL-60
  GI50: > 100 µM (inactive)
RPMI-8226
  GI50: > 100 µM (inactive)
UACC-257
  GI50: > 100 µM (inactive)
CCRF-CEM
  GI50: > 100 µM (inactive)
SN12C
  GI50: > 100 µM (inactive)
OVCAR-3
  GI50: > 100 µM (inactive)
HT-29
  GI50: 52.8 µM (inactive)
MDA-MB-231
  GI50: > 100 µM (inactive)
OVCAR-8
  GI50: > 100 µM (inactive)
OVCAR-5
  GI50: > 100 µM (inactive)
SF-295
  GI50: > 100 µM (inactive)
COLO 205
  GI50: > 100 µM (inactive)

## c1csc(-c2cc(-c3cccs3)c(-c3ccsc3)s2)c1
HCT-15
  GI50: 19.2 µM
EKVX
  GI50: > 100 µM (inactive)
UO-31
  GI50: > 100 µM (inactive)
SNB-19
  GI50: > 100 µM (inactive)
OVCAR-4
  GI50: > 100 µM (inactive)
SK-MEL-5
  GI50: > 100 µM (inactive)
SK-MEL-2
  GI50: > 100 µM (inactive)
HOP-62
  GI50: > 100 µM (inactive)
ACHN
  GI50: > 100 µM (inactive)
T47D
  GI50: 17.6 µM (inactive)
LOX IMVI
  GI50: > 100 µM (inactive)
NCI-H23
  GI50: > 100 µM (inactive)
MCF7
  GI50: 24.7 µM (inactive)
TK-10
  GI50: > 100 µM (inactive)
SW-620
  GI50: > 100 µM (inactive)
MDA-MB-435
  GI50: > 100 µM (inactive)
DU-145
  GI50: > 100 µM (inactive)
UACC-62
  GI50: > 100 µM (inactive)
K562
  GI50: > 100 µM (inactive)
M14
  GI50: > 100 µM (inactive)
A549
  GI50: > 100 µM (inactive)
MOLT-4
  GI50: > 100 µM (inactive)
HCC 2998
  GI50: 34.2 µM (inactive)
PC-3
  GI50: > 100 µM (inactive)
NCI-H460
  GI50: > 100 µM (inactive)
SR
  GI50: > 100 µM (inactive)
HCT-116
  GI50: > 100 µM (inactive)
786-0
  GI50: > 100 µM (inactive)
SF-268
  GI50: > 100 µM (inactive)
KM12
  GI50: 55.5 µM (inactive)
SK-MEL-28
  GI50: > 100 µM (inactive)
SF-539
  GI50: > 100 µM (inactive)
SK-OV-3
  GI50: > 100 µM (inactive)
SNB-75
  GI50: > 100 µM (inactive)
A498
  GI50: > 100 µM (inactive)
CAKI-1
  GI50: > 100 µM (inactive)
IGROV-1
  GI50: > 100 µM (inactive)
NCI/ADR-RES
  GI50: > 100 µM (inactive)
NCI-H226
  GI50: > 100 µM (inactive)
MDA-N
  GI50: > 100 µM (inactive)
U-251
  GI50: > 100 µM (inactive)
HL-60
  GI50: > 100 µM (inactive)
RPMI-8226
  GI50: 96.2 µM (inactive)
UACC-257
  GI50: 58.1 µM (inactive)
CCRF-CEM
  GI50: > 100 µM (inactive)
SN12C
  GI50: 56.8 µM (inactive)
HT-29
  GI50: > 100 µM (inactive)
Hs-578T
  GI50: > 100 µM (inactive)
MDA-MB-231
  GI50: > 100 µM (inactive)
OVCAR-8
  GI50: > 100 µM (inactive)
SF-295
  GI50: > 100 µM (inactive)
COLO 205
  GI50: 55.5 µM (inactive)
Malme-3M
  GI50: > 100 µM (inactive)

Reference: ChEMBL document CHEMBL1201862, “PubChem BioAssay data set” (2004)
